Results published in ChEMBL document CHEMBL1649074, “Aurora kinase inhibitors based on the imidazo[1,2-a]pyrazine core: fluorine and deuterium incorporation improve oral absorption and exposure” (J Med Chem, 2011).

Columns and labels:
[1] = AUC (0 to 6 hrs) in rat at 10 mg/kg, po; type: ADME, organism-based; design: time < 6 hr, dose 10 mg/kg, route oral; details: plasma
[2] = target: T1, Aurora kinase B (Homo sapiens, UniProt Q96GD4); test: Inhibition of Aurora B in human HCT116 cells assessed as inhibition of histone H3 phosphorylation by immunofluorescence assay; type: cell-based, HCT-116
[3] = Oral AUC in Sprague-Dawley rat at 30 mg/kg, po; type: ADME, organism-based; design: dose 30 mg/kg, route oral; details: in vivo
[4] = target: T2, Aurora kinase A (Homo sapiens, UniProt O14965); test: Inhibition of Aurora A
T2 sequence (O14965 whole entry): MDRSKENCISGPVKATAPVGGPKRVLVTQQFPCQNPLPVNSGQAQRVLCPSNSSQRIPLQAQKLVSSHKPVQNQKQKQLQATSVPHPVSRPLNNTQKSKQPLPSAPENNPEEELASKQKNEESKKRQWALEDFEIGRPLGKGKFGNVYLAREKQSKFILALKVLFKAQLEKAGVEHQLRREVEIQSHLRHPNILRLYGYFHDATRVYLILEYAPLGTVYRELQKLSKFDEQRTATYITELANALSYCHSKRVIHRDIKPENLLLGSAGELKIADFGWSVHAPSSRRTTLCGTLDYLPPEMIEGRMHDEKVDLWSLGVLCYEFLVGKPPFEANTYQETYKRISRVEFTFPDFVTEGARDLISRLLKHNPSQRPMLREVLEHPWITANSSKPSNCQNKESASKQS

[5] = AUC in CD1 mouse at 50 mg/kg, po; type: ADME, organism-based; design: dose 50 mg/kg, route oral; details: plasma
[6] = Oral AUC in Beagle dog at 10 mg/kg, po; type: ADME, organism-based, Canis lupus familiaris; design: dose 10 mg/kg, route oral; details: in vivo
[7] = target: T1, Aurora kinase B; test: Inhibition of Aurora B
[8] = Oral bioavailability in Sprague-Dawley rat at 30 mg/kg; type: ADME, organism-based; details: in vivo
[9] = Oral AUC in cynomolgus monkey at 10 mg/kg, po; type: ADME, organism-based, Macaca fascicularis; design: dose 10 mg/kg, route oral; details: in vivo
[10] = Plasma clearance in rat; type: ADME, organism-based
[11] = Oral bioavailability in Beagle dog at 10 mg/kg; type: ADME, organism-based, Canis lupus familiaris; details: beagle, in vivo
[12] = Oral bioavailability in cynomolgus monkey at 10 mg/kg; type: ADME, organism-based, Macaca fascicularis; details: in vivo
[13] = Oral bioavailability in CD1 mouse at 50 mg/kg; type: ADME, organism-based; details: in vivo

T1 sequence (Q96GD4 whole entry): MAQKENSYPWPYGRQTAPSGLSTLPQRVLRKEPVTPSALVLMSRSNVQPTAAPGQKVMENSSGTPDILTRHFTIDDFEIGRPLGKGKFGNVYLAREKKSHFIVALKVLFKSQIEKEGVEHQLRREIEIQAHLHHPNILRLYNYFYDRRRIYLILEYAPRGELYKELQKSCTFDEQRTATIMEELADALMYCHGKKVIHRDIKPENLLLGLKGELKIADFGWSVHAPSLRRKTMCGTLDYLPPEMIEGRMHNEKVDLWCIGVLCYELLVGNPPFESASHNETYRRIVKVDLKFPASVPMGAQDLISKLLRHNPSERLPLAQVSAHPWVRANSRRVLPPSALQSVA

| AUC(0-t) at 6 h [1] | IC50 [2] | AUC [3] | IC50 [4] | AUC [5] | AUC [6] | IC50 [7] | bioavailability [8] | AUC [9] | clearance [10] | bioavailability [11] | bioavailability [12] | bioavailability [13] | SMILES |
| --- | --- | --- | --- | --- | --- | --- | --- | --- | --- | --- | --- | --- | --- |
| 10.9 µM·h | 63 nM | 20.5 µM·h | ≤ 4 nM | 11.1 µM·h | 0.3 µM·h | ≤ 13 nM | 22% | 0.03 µM·h | 12 mL/min/kg | – | – | – | Cc1cn2c(-c3cn[nH]c3)cnc2c(Nc2cc(CNCCC(F)(F)F)ns2)n1.Cl |
| 12.1 µM·h | 76 nM | 7.1 µM·h | ≤ 4 nM | 7.1 µM·h | 3.8 µM·h | ≤ 13 nM | 12% | 0.1 µM·h | – | – | – | – | Cc1cn2c(-c3cn[nH]c3)cnc2c(Nc2cc(CN3CC(F)(F)C3)ns2)n1.O=C(O)C(F)(F)F |
| – | – | – | – | – | – | – | – | – | 35 mL/min/kg | – | – | – | Cl.[2H]C([2H])(c1cc(Nc2nc(C)cn3c(-c4cn[nH]c4)cnc23)sn1)N1CCCCC1 |
| 0.86 µM·h | 198 nM | – | ≤ 4 nM | – | – | ≤ 13 nM | – | – | – | – | – | – | Cc1cn2c(-c3cn[nH]c3)cnc2c(Nc2cc(CN(CC(F)(F)F)C(C)(C)CO)ns2)n1.Cl |
| 0.11 µM·h | 50 nM | – | ≤ 4 nM | – | – | ≤ 13 nM | – | – | – | – | – | – | Cc1cn2c(-c3cn[nH]c3)cnc2c(Nc2cc(CN3CC(F)(F)C(F)(F)C3)ns2)n1.Cl |
| 3.42 µM·h | 51 nM | – | ≤ 4 nM | – | – | ≤ 13 nM | – | – | – | – | – | – | Cc1cn2c(-c3cn[nH]c3)cnc2c(Nc2cc(CNCC(F)(F)C(F)(F)F)ns2)n1.Cl |
| – | 88 nM | – | ≤ 4 nM | – | – | ≤ 13 nM | – | – | – | – | – | – | Cc1cn2c(-c3cn[nH]c3)cnc2c(Nc2cc(CN3CCCC3)ns2)n1 |
| 1.56 µM·h | 79 nM | – | ≤ 4 nM | – | – | ≤ 13 nM | – | – | – | – | – | – | Cc1cn2c(-c3cn[nH]c3)cnc2c(Nc2cc(CN3CCCC(F)(F)C3)ns2)n1.Cl |
| 2.2 µM·h | 86 nM | 8 µM·h | ≤ 4 nM | 1.2 µM·h | 6.1 µM·h | ≤ 13 nM | 21% | 0.4 µM·h | – | 38% | 3% | 10% | Cc1cn2c(-c3cn[nH]c3)cnc2c(Nc2cc(CN3CCC(F)CC3)ns2)n1.Cl |
| 0.76 µM·h | 93 nM | – | ≤ 4 nM | – | – | ≤ 13 nM | – | – | – | – | – | – | Cc1cn2c(-c3cn[nH]c3)cnc2c(Nc2cc(CN3CC[C@H](F)C3)ns2)n1.Cl |
| 0.21 µM·h | 45 nM | – | ≤ 4 nM | – | – | ≤ 13 nM | – | – | 80 mL/min/kg | – | – | – | Cc1cn2c(-c3cn[nH]c3)cnc2c(Nc2cc(CN3CCCCC3)ns2)n1.Cl |
| – | – | – | – | – | – | – | – | – | 5.1 mL/min/kg | – | – | – | Cl.[2H]C([2H])(NCCC(F)(F)F)c1cc(Nc2nc(C)cn3c(-c4cn[nH]c4)cnc23)sn1 |
| 1.21 µM·h | 193 nM | – | ≤ 4 nM | – | – | ≤ 13 nM | – | – | – | – | – | – | Cc1cn2c(-c3cn[nH]c3)cnc2c(Nc2cc(CN3CCCC(F)C3)ns2)n1.Cl (stereo not given) |
| 0.95 µM·h | 74 nM | – | ≤ 4 nM | – | – | ≤ 13 nM | – | – | – | – | – | – | Cc1cn2c(-c3cn[nH]c3)cnc2c(Nc2cc(CN3CCC(F)(F)CC3)ns2)n1.Cl |
| 1.34 µM·h | 218 nM | – | ≤ 4 nM | – | – | ≤ 13 nM | – | – | – | – | – | – | Cc1cn2c(-c3cn[nH]c3)cnc2c(Nc2cc(CN3CCC(C(F)(F)F)CC3)ns2)n1.Cl |
| 0.18 µM·h | 191 nM | – | ≤ 4 nM | – | – | ≤ 13 nM | – | – | – | – | – | – | Cc1cn2c(-c3cn[nH]c3)cnc2c(Nc2cc(CN3CC(F)C3)ns2)n1.O=C(O)C(F)(F)F |
| 0.74 µM·h | 82 nM | – | ≤ 4 nM | – | – | ≤ 13 nM | – | – | – | – | – | – | Cc1cn2c(-c3cn[nH]c3)cnc2c(Nc2cc(CN3CC[C@@H](F)C3)ns2)n1.Cl |

| SMILES | AUC(0-t) at 6 h [1] | IC50 [2] | AUC [3] | IC50 [4] | AUC [5] | AUC [6] | IC50 [7] | bioavailability [8] | AUC [9] | clearance [10] | bioavailability [11] | bioavailability [12] | bioavailability [13] |
| --- | --- | --- | --- | --- | --- | --- | --- | --- | --- | --- | --- | --- | --- |
| Cc1cn2c(-c3cn[nH]c3)cnc2c(Nc2cc(CN(CC(F)F)C(C)(C)CO)ns2)n1.Cl | 0.28 µM·h | 306 nM | – | ≤ 4 nM | – | – | ≤ 13 nM | – | – | – | – | – | – |
